Laboratory results from publication PMC6208443 (Nature Communications, 2018).

Tests used:
Type in all cases: binding, Arabidopsis thaliana
Conditions in all cases: result in words
EDM2 = test: Peptide affinity purification and mass spectrometry, EDM2
Protocol: (§1) To extract the nuclear proteins for peptide affinity purification, 1 g of wild-type Arabidopsis flowers was harvested and ground in liquid nitrogen. […] The filtrates were centrifuged at 2000 g for 15 min at 4 °C to precipitate the nuclei. Nuclear pellets were washed two times with 1 ml of Honda buffer and then were resuspended in 600 μl of Nuclei Lysis Buffer (50 mM Tris-HCl pH 8.0, 150 mM NaCl, 1% NP40, 0.5 mM DTT, 1 mM PMSF, Roche protease inhibitor cocktail). After sonication, nuclei extracts were centrifuged at 20,000 g for 10 min at 4 °C. The supernatant was incubated with 2 μg of biotinylated histone peptides and Streptavidin Magnetic Beads (Thermo Scientific, 88816) for 3 h with rotation at 4 °C. […] After incubation, beads were washed three times with wash buffer 1 (320 mM NaCl, 50 mM Tris-HCl pH 8.0, 0.5% NP40), and three times with wash buffer 2 (150 mM NaCl, 50 mM Tris-HCl pH 8.0).
(§2) For LC-MS/MS analysis, IP beads with captured proteins were lysed in 12 mM sodium deoxycholate (SDC)-sodium lauroyl sarcosinate (SLS): 100 mM Tris-HCl (pH 8.5), 12 mM SDC, and 12 mM SLS. Proteins were reduced and alkylated with 10 mM tris-(2-carboxyethyl) phosphine and 40 mM chloroacetamide at 95 °C for 5 min. The supernatant containing reduced and alkylated proteins was transferred into a new Eppendorf tube and diluted fivefold with 50 mM triethylammonium hydrogen carbonate buffer and digested with 500 ng trypsin (Sigma) overnight. The SDC and SLS were removed by adding 100% acetyl acetate in a ratio 1:1 (vol/vol) sample to acetyl acetate volume ratio. Samples were acidified with 10% trifluoroacetic acid to pH ~3, and desalted by a custom-made stage tip with a styrene divinyl benzene (SDB-XC) membrane (3 M). The dried peptides were resuspended in 30 μL of 0.3% formic acid (FA) with 3% acetonitrile (ACN), quantified by BCA assay (Thermo Fisher Scientific), and injected into an Easy-nLC 1000 (Thermo Fisher Scientific). Peptides were separated on a 45 cm in-house packed column (360 μm OD × 75 μm ID) containing C18 resin (2.2 μm, 100 Å, Michrom Bioresources) with a 30 cm column heater (Analytical Sales and Services) set at 60 °C. The mobile phase buffer consisted of 0.1% FA in ultra-pure water (buffer A) with an eluting buffer of 0.1% FA in 80% ACN (buffer B) run over a linear 65 min gradient of 5%-30% buffer B at a flow rate of 250 nL/min. The Easy-nLC 1000 was coupled online with a Velos Pro LTQ-Orbitrap mass spectrometer (Thermo Fisher Scientific). The mass spectrometer was operated in the data-dependent mode in which a full MS scan (from m/z 350–1500 with the resolution of 30,000 at 400 m/z) was followed by the 10 most intense ions being subjected to collision-induced dissociation (CID) fragmentation. […]

CMT2 = test: Peptide affinity purification and mass spectrometry, CMT2
Protocol: as §1
as §2, with “[…] Search” for “The mass spectrometer”, “performed with full tryptic digestion and allowed a maximum of two missed cleavages on” for “operated in”, “peptides analyzed from” for “data-dependent mode in which a full MS scan (from m/z 350–1500 with”, “sequence database.” for “resolution of 30,000 at 400 m/z) was followed by the 10 most intense ions being subjected to collision-induced dissociation (CID) fragmentation.”

CMT3 = test: Peptide affinity purification and mass spectrometry, CMT3
Protocol: as §1
as §2, with “[…] Search” for “The mass spectrometer”, “performed with full tryptic digestion and allowed a maximum of two missed cleavages on” for “operated in”, “peptides analyzed from” for “data-dependent mode in which a full MS scan (from m/z 350–1500 with”, “sequence database.” for “resolution of 30,000 at 400 m/z) was followed by the 10 most intense ions being subjected to collision-induced dissociation (CID) fragmentation.”

AGDP1 = test: Peptide affinity purification and mass spectrometry, AGDP1
Protocol: as §1, §2

| Substance | presence in pull-down products (EDM2) | presence in pull-down products (CMT2) | presence in pull-down products (CMT3) | identification from pull-down samples (AGDP1) |
| --- | --- | --- | --- | --- |
| H3(1-21)K9me1: synthesized biotinylated H3(1-21)K9me1 peptide, EMD Millipore | present | present | present | identified |
| H3(1-21)K9me2: synthesized biotinylated H3(1-21)K9me2 peptide, EMD Millipore | present | present | present | identified |
| H3(1-21): synthesized biotinylated H3(1-21) peptide, EMD Millipore | not in H3 pull-down products | not in H3 pull-down products | not in H3 pull-down products | not from the H3 pull-down samples |
| H3(1-21)K9me3: synthesized biotinylated H3(1-21)K9me3 peptide, EMD Millipore | present | present | present | identified |
